Measured values published in US20160257697A1, “THIOPHENE-SUBSTITUTED TETRACYCLIC COMPOUNDS AND METHODS OFUSE THEREOF FOR THE TREATMENT OF VIRAL DISEASES” (priority 2013, published 2016).
Where two headings read alike, the source gives them in different places.

Legend:
Test in all cases: microbe, parasite or virus in culture
Assay type in all cases: cell-based, Hepatitis C virus (HCV)
Conditions in all cases: Replicon Assay A
[1] = system: HCV replicon 1A
Outline: (§1)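 Three-day treatment of replicon cells (2000/well, 5% FBS, 0.5% DMSO), followed by TaqMan RT-PCR of replicon RNA with cyclophilin as internal control.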

[2] = system: HCV replicon 2B
Outline: as §1

[3] = system: HCV replicon 1AY93H
Outline: as §1

[4] = Hepatitis C virus, HCV replicon 1A
[5] = read-out: 2B IC50, HCV replicon 2B
[6] = read-out: 1A Y93H IC50, HCV replicon 1A Y93H
[7] = read-out: 1A Y93H IC50, replicon 1AY93H
[8] = Hepatitis C virus, read-out: 1A Y93H IC50 (nM), replicon 1AY93H
[9] = Hepatitis C virus, read-out: 2B IC50 (nM), replicon 2B

SMILES: COC(=O)N[C@H](C(=O)N1C[C@H](F)C[C@H]1c1ncc(-c2ccc3c(c2)cc2n3C(c3cc4ccccc4s3)Oc3cc(-c4cnc([C@@H]5CCCN5C(=O)[C@@H](NC(=O)OC)C5CCOCC5)[nH]4)ccc3-2)[nH]1)C(C)C (single isomer, unassigned) [Compound 623]
- IC50 [1, 4]: 0.0024 nM
- IC50 [2, 5]: 0.345 nM
- IC50 [3, 6]: 0.0213 nM

SMILES: COCC(C)(C)c1ccc(C2Oc3cc(-c4cnc([C@@H]5CCCN5C(=O)[C@@H](NC(=O)OC)C(C)C)[nH]4)cc(F)c3-c3cc4cc(-c5cnc([C@@H]6CCCN6C(=O)[C@@H](NC(=O)OC)C(C)C)[nH]5)ccc4n32)s1 (single isomer, unassigned) [Compound 400]
- IC50 ([1]; replicon 1A): 0.0017 nM
- IC50 ([2]; read-out: 2B IC50, replicon 2B): 1.69 nM
- IC50 [3, 7]: 0.151 nM

SMILES: CCc1ccc(C2Oc3cc(-c4cnc([C@@H]5CCCN5C(=O)C(NC(=O)OC)C5CCOC(C)(C)C5)[nH]4)cc(F)c3-c3cc4cc(-c5cnc([C@@H]6CCCN6C(=O)C(NC(=O)OC)C6CCOC(C)(C)C6)[nH]5)ccc4n32)s1 (single isomer, unassigned) [Compound 297]
- IC50 ([1]; replicon 1A): 0.0889 nM
- IC50 ([2]; read-out: 2B IC50, replicon 2B): 6.68 nM
- IC50 [3, 7]: 8.37 nM

SMILES: COC(=O)N[C@H](C(=O)N1CCC[C@H]1c1ncc(-c2cc(F)c3c(c2)OC(c2ccc(C(C)C)s2)n2c-3cc3cc(-c4cnc([C@@H]5CCCN5C(=O)[C@@H](NC(=O)OC)C5CCOCC5)[nH]4)ccc32)[nH]1)C(C)C (single isomer, unassigned) [Compound 344]
- IC50 ([1]; Hepatitis C virus, replicon 1A): 0.0015 nM
- IC50 ([2]; read-out: 2B IC50, replicon 2B): 0.242 nM
- IC50 [3, 7]: 0.128 nM

SMILES: COC(=O)N[C@H](C(=O)N1C[C@H](F)C[C@H]1c1nc(-c2ccc3c(c2)cc2n3C(c3cc(C)c(C)s3)Oc3cc(-c4cnc([C@@H]5C[C@@H](F)CN5C(=O)[C@@H](NC(=O)OC)C(C)C)[nH]4)ccc3-2)c[nH]1)C(C)C (mixture of isomers) [Compound 711]
- IC50 [1, 4]: 0.027 nM
- IC50 ([2]; Hepatitis C virus, read-out: 2B IC50, HCV replicon 2B): 0.029 nM
- IC50 ([3]; Hepatitis C virus, read-out: 1A Y93H IC50, HCV replicon 1A Y93H): 0.12 nM

SMILES: COC(=O)N[C@H](C(=O)N1CCC[C@H]1c1ncc(-c2cc(F)c3c(c2)OC(c2ccc(C(C)CF)s2)n2c-3cc3cc(-c4cnc([C@@H]5CCCN5C(=O)[C@@H](NC(=O)OC)C(C)C)[nH]4)ccc32)[nH]1)C(C)C (single isomer, unassigned) [Compound 332]
- IC50 ([1]; Hepatitis C virus, replicon 1A): 0.0011 nM
- IC50 ([2]; read-out: 2B IC50, replicon 2B): 1.39 nM
- IC50 [3, 8]: 0.765 nM

SMILES: COC(=O)N[C@H](C(=O)N1CCC[C@H]1c1ncc(-c2cc(F)c3c(c2)OC(c2ccc(C4CC4)s2)n2c-3c(F)c3cc(-c4cnc([C@@H]5CCCN5C(=O)[C@@H](NC(=O)OC)C(C)C)[nH]4)ccc32)[nH]1)C(C)C (single isomer, unassigned) [Compound 73]
- IC50 ([1]; Hepatitis C virus, replicon 1A): 0.0016 nM
- IC50 [2, 9]: 5.14 nM
- IC50 [3, 8]: 2.26 nM

SMILES: COC(=O)N[C@H](C(=O)N1CCC[C@H]1c1ncc(-c2cc(F)c3c(c2)OC(c2ccsc2)n2c-3cc3cc(-c4cnc([C@@H]5CCCN5C(=O)[C@@H](NC(=O)OC)C(C)C)[nH]4)ccc32)[nH]1)C(C)C (single isomer, unassigned) [Compound 318]
- IC50 ([1]; replicon 1A): 0.0019 nM
- IC50 ([2]; read-out: 2B IC50, replicon 2B): 6.87 nM
- IC50 [3, 7]: 5.9 nM

SMILES: COC(=O)NC(C(=O)N1CCC[C@H]1c1ncc(-c2ccc3c(c2)cc2n3C(c3cc4c(s3)CCC4)Oc3cc(-c4cnc([C@@H]5CCCN5C(=O)[C@@H](NC(=O)OC)C(C)C)[nH]4)cc(F)c3-2)[nH]1)C1CCOC(C)(C)C1 (single isomer, unassigned) [Compound 405]
- IC50 ([1]; Hepatitis C virus, replicon 1A): 0.0023 nM
- IC50 [2, 9]: 0.0042 nM
- IC50 [3, 8]: 0.0133 nM

SMILES: COC(=O)N[C@H](C(=O)N1CCC[C@H]1c1nc(-c2cc(F)c3c(c2)OC(c2ccc(C4CC4)s2)n2c-3cc3cc(-c4c[nH]c([C@@H]5C[C@H]6C[C@H]6N5C(=O)[C@@H](NC(=O)OC)C(C)C)n4)ccc32)c[nH]1)C(C)C (single isomer, unassigned) [Compound 720]
- IC50 ([1]; HCV replicon 1A): 0.0019 nM
- IC50 [2, 5]: 3.99 nM
- IC50 [3, 6]: 0.52 nM

SMILES: COC(=O)NC(C(=O)N1CCC[C@H]1c1ncc(-c2ccc3c(c2)cc2n3C(c3ccc(C4CC4)s3)Oc3cc(-c4cnc([C@@H]5CCCN5C(=O)[C@@H](NC(=O)OC)C(C)C)[nH]4)cc(F)c3-2)[nH]1)C(C)(C)F (single isomer, unassigned) [Compound 76]
- IC50 ([1]; replicon 1A): 0.0159 nM
- IC50 ([2]; read-out: 2B IC50, replicon 2B): 13.7 nM
- IC50 [3, 7]: 2.55 nM

SMILES: COC(=O)NC(C(=O)N1CCC[C@H]1c1ncc(-c2ccc3c(c2)cc2n3C(c3ccc(C4CC4)s3)Oc3cc(-c4cnc([C@@H]5CCCN5C(=O)[C@@H](NC(=O)OC)C(C)C)[nH]4)cc(F)c3-2)[nH]1)C1CCOC(C)(C)C1 (single isomer, unassigned) [Compound 220]
- IC50 ([1]; replicon 1A): 0.0021 nM
- IC50 ([2]; read-out: 2B IC50, replicon 2B): 0.93 nM
- IC50 [3, 7]: 0.52 nM
